Our source for the IC50, inhibition and EC50 values is ChEMBL document CHEMBL4385595, “Advancement of multi-target drug discoveries and promising applications in the field of Alzheimer's disease” (Eur J Med Chem, 2019).

The target in one test is Acetylcholinesterase (Homo sapiens, UniProt P22303). Nature of the test: Inhibition of human AChE.
Test [1] addresses Glutamate [NMDA] receptor. Nature of the test: Inhibition of NMDA receptor (unknown origin). It counts as protein-complex assay, Homo sapiens.
The next test has as its target Beta-secretase 1 (Homo sapiens, UniProt P56817). Nature of the test: Inhibition of human recombinant BACE-1 using 19F peptide as substrate measured after 5 hrs by fluorescence method.
For test [2], the target named is Glycogen synthase kinase-3 beta (Homo sapiens, UniProt P49841). Briefly: Inhibition of human recombinant GSK-3beta using 19F peptide as substrate measured after 1.5 hrs by fluorescence method.
Sequence of Glycogen synthase kinase-3 beta (P49841 whole entry): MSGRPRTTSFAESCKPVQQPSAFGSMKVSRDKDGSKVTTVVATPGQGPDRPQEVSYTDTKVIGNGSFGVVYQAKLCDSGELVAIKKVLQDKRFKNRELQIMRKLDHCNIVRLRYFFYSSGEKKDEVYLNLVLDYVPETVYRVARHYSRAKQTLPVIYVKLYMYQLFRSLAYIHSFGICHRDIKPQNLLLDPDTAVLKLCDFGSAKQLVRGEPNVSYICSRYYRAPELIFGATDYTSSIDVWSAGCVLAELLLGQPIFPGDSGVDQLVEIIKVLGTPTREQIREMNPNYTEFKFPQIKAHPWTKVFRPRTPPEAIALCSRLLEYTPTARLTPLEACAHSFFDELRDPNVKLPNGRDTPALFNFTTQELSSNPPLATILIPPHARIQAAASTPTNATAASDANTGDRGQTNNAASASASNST
Test [3] concerns the target T1, Cholinesterase (Homo sapiens, UniProt P06276). Nature of the test: Inhibition of BChE (unknown origin).
The target of test [4] is T1, Cholinesterase. Briefly: Inhibition of human BuChE.
Test [5] concerns the target Microtubule-associated protein tau (Homo sapiens) (UniProt P10636). Briefly: Inhibition of tau aggregation (unknown origin) at 20 uM.
For test [6], the target named is Amyloid-beta precursor protein (Homo sapiens) (UniProt P05067). Briefly: Inhibition of self-induced amyloid beta (1 to 42) (unknown origin) aggregation at 20 uM.
Sequence of Amyloid-beta precursor protein (Homo sapiens) (P05067 whole entry): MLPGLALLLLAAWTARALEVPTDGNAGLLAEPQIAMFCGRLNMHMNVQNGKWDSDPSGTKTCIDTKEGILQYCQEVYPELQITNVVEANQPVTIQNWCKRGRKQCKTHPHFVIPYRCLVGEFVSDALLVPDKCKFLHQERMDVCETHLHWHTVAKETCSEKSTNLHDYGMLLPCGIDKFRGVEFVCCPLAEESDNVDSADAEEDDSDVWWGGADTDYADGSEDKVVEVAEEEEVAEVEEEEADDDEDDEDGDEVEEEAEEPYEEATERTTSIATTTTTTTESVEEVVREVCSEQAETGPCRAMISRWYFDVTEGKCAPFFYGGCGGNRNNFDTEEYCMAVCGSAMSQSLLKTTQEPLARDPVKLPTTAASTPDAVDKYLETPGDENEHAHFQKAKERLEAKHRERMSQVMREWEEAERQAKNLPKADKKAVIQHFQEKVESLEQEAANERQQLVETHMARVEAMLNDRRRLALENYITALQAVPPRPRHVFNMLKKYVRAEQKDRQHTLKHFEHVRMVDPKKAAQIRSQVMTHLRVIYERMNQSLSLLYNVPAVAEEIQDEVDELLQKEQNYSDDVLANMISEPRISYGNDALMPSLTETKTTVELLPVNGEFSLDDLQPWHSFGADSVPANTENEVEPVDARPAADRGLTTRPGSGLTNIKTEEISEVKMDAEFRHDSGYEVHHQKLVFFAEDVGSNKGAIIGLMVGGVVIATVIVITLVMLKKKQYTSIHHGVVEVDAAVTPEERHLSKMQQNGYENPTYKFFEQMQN
Test [7] can be described thus: Inhibition of calcium channel in rat ileum intestine assessed as reduction in Ca-induced contraction. Type of test: tissue-based.
For a further test, the system named is Mus musculus. Briefly: In-vivo inhibition of NMDA receptor in mouse assessed as reduction in NMDA-induced convulsions administered intraperitoneally 40 mins before NMDA injection. It counts as functional, organism-based.
For test [8], the target named is T1, Cholinesterase. Nature of the test: Inhibition of BuChE (unknown origin) assessed as decrease in thiocholine accumulation by spectrophotometry.
The test system of another test is SK-N-SH. Briefly: Inhibition of apoptosis in human SK-N-SH cells assessed as […] in cleaved caspase-3 by Western blot analysis. Type of test: functional, cell-based. On the technique in general: Immunoblotting shows a protein as a band on a membrane.

T1 sequence (P06276 whole entry): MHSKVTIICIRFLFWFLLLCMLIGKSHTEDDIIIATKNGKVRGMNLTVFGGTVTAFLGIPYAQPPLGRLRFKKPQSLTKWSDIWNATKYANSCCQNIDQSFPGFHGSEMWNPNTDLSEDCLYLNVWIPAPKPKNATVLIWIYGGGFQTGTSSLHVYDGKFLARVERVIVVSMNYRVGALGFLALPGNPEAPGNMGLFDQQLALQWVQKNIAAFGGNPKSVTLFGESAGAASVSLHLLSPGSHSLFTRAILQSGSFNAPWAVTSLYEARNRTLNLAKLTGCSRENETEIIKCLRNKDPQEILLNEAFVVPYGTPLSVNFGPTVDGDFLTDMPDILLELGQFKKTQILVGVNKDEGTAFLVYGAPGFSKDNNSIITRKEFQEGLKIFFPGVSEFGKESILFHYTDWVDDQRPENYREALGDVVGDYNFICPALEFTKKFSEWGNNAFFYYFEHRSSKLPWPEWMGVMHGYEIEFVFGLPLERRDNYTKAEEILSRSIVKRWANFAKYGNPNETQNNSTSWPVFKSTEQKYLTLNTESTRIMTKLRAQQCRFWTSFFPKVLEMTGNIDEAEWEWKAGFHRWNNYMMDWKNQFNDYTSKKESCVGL
Sequence of Acetylcholinesterase (P22303 whole entry): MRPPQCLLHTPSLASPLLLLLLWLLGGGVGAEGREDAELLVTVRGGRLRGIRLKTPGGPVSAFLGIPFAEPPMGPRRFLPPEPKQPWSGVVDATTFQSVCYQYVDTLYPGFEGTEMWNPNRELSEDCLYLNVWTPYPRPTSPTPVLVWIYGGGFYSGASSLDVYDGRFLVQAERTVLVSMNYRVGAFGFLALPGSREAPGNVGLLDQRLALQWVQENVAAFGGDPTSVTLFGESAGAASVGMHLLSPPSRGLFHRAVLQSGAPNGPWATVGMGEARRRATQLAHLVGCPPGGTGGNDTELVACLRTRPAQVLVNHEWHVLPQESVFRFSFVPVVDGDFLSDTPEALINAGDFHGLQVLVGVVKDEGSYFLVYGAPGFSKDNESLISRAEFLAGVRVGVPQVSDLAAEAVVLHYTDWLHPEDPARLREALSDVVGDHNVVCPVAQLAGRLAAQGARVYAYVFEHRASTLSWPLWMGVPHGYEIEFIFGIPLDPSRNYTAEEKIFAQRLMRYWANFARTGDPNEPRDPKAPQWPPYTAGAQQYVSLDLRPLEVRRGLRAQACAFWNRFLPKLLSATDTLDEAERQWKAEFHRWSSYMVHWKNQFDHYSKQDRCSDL
Sequence of Beta-secretase 1 (P56817 whole entry): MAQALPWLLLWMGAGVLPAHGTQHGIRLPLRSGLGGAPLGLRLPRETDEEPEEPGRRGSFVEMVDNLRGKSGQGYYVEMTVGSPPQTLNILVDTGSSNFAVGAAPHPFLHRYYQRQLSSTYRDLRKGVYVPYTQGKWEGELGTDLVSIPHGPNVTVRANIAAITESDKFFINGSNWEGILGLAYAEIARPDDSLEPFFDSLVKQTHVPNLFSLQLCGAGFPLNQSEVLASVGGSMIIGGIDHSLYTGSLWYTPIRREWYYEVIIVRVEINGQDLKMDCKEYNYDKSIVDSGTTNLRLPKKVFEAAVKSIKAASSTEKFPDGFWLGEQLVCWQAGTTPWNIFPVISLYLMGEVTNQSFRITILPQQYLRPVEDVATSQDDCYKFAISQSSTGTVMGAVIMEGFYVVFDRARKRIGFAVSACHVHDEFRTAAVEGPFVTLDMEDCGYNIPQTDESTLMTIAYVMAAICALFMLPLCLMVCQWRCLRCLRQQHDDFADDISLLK
Sequence of Microtubule-associated protein tau (Homo sapiens) (P10636 whole entry): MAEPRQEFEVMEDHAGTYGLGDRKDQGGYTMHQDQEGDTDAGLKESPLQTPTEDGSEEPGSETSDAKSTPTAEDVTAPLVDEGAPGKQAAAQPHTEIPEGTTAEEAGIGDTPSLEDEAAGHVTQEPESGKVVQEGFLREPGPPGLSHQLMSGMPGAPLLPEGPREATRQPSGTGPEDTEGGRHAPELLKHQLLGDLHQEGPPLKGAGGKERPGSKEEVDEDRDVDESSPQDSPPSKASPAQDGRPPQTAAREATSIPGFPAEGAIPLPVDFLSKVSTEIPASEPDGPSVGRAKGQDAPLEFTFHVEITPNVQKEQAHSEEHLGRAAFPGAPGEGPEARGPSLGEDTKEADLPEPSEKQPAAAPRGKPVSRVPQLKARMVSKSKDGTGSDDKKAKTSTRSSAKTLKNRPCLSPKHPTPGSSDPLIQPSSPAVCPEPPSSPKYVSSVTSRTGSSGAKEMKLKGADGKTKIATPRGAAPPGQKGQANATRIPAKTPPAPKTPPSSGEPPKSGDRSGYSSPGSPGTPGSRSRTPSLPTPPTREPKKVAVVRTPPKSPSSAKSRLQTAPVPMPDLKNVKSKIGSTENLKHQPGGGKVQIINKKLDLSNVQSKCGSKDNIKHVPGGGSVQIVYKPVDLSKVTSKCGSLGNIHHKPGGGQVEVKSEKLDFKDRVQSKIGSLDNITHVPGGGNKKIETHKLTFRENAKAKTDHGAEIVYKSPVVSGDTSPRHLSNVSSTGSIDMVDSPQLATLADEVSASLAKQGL

By IC50 is commonly meant the concentration that gives 50% inhibition. For the compound `Cc1ccc2[nH]c3c(c2c1)CN(CCCCCCN1CCc2[nH]c4ccc(C)cc4c2C1)CC3`, the IC50 was 0.195 µM against Acetylcholinesterase and 11 µM in [1].
On to `O=c1[nH]c(=O)c2cc[nH]c2[nH]1` [7-DEAZAXANTHINE], for which the IC50 at Beta-secretase 1 worked out at 0.3 µM; in test [2], 0.7 µM.
On to `CCN1CCc2c(c3ccccc3n2CCC(=O)N2c3ccccc3Sc3ccccc32)C1`, for which, on Cholinesterase [3], half-maximal inhibition (IC50) required 0.52 µM.
As a reminder, the inhibition is how much of the control response was suppressed. Read a high inhibition as strong suppression. In the case of `CC[C@@H](CN1CCCC1=O)C(=O)NCCCCCCCNc1c2c(nc3cc(Cl)ccc13)C[C@H]1C=C(C)C[C@@H]2C1`, the values for the half-maximal inhibitory concentration (IC50) against Acetylcholinesterase and at Cholinesterase [4] were 0.0042 µM and 0.232 µM, respectively. Also, the inhibition in test [5] turned out to be 54%; in test [6], 36%.
For `Cc1ccc2c(c1)c1c(n2CCc2ccc(C)nc2)CCN(C)C1` [LATREPIRDINE], the 50% inhibitory concentration (IC50) stood at 57 µM in [7] and 7900 µM at Cholinesterase [8]. For the same compound, the EC50 with Mus musculus is 42 mg/kg.
With `C#CCN[C@@H]1CCc2ccc(OC(=O)N(C)CC)cc21` [LADOSTIGIL], the IC50 in the test on SK-N-SH worked out at 1050 µM.
